Assay results as given in the supplement of paper PMC12420376.

Assays:
KURAMOCHI = assay: drug sensitivity score (DSS2) on cancer cell count; higher = more sensitive; extreme values may be limits of the assay; settings: 72 h
How it was run: (§1)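 Cancer cell counts came from 10× images (4 fields) of fixed cells immunostained for CK8/18 with Hoechst. The ovarian cancer cells had been grown alone or in 1:1 direct co-culture with lung or skin fibroblasts on 384-well plates pre-spotted acoustically with 528 approved and investigational compounds at 5 concentrations, then treated for 72 h. Breeze was used to derive a drug sensitivity score from logistic fits of the data.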

OVCAR8 = assay: as above; settings: 72 h
How it was run: as §1

[1] = co-cultured fibroblast: BJHTERT
[2] = co-cultured fibroblast: none (monoculture)

SMILES | drug sensitivity score (KURAMOCHI; [1]) [DSS] | drug sensitivity score (KURAMOCHI; co-cultured fibroblast: WI38) [DSS] | drug sensitivity score (KURAMOCHI; [2]) [DSS] | drug sensitivity score (OVCAR8; [1]) [DSS] | drug sensitivity score (OVCAR8; co-cultured fibroblast: WI38) [DSS] | drug sensitivity score (OVCAR8; [2]) [DSS]
CC1=C(/C=C/C(C)=C/C=C/C(C)=C/C(=O)O)C(C)(C)CCC1 [Tretinoin] | 0 | 0 | 8.2 | 0 | 0 | 0
CC(C)Oc1ccc(C(=O)N[C@H](CNC(=O)CN(C)C)Cc2ccc(-c3cn4cccc([C@H](C)O)c4n3)cc2)cc1Cl | 18.1 | 22.6 | 22.8 | 18.3 | 14.2 | 16.6
Cc1c(N)nc([C@H](CC(N)=O)NC[C@H](N)C(N)=O)nc1C(=O)N[C@H](C(=O)N[C@H](C)[C@@H](O)[C@H](C)C(=O)N[C@H](C(=O)NCCc1nc(-c2nc(C(=O)NCCC[S+](C)C)cs2)cs1)[C@@H](C)O)[C@@H](OC1OC(CO)C(O)C(O)C1OC1OC(CO)C(O)C(OC(N)=O)C1O)c1cnc[nH]1 (stereo not given in full) [Bleomycin] | 13.5 | 15.4 | 18.8 | 12.1 | 11.5 | 14.5
COc1cc2ncnc(Nc3cccc(Cl)c3F)c2cc1OC(=O)N1CCN(C)C[C@H]1C [AZD3759] | 1.1 | 0 | 0 | 0.8 | 3.6 | 0
Cn1ncnc1[C@H]1c2n[nH]c(=O)c3cc(F)cc(c23)N[C@@H]1c1ccc(F)cc1 [Talazoparib] | 10.5 | 15 | 16.3 | 19.5 | 15.3 | 15.8
CNCc1ccc(-c2[nH]c3cc(F)cc4c3c2CCNC4=O)cc1 [Rucaparib] | 3.7 | 5.3 | 14.1 | 8.5 | 3.5 | 6.5
CC(=O)c1c(C)c2cnc(Nc3ccc(N4CCNCC4)cn3)nc2n(C2CCCC2)c1=O [Palbociclib] | 6.2 | 7.5 | 13.9 | 6.6 | 0.3 | 3.9
N#CC(c1ccnc(OCc2ccc(CN3CCOCC3)cc2)n1)c1nc2ccccc2s1 (stereo not given) [Bentamapimod] | 2.5 | 2.3 | 0.2 | 0 | 0 | 1.4
CCCCc1nc2cc(/C=C/C(=O)NO)ccc2n1CCN(CC)CC [Pracinostat] | 15.7 | 20.4 | 19.8 | 23.1 | 20.4 | 25.5
CC[C@@H]1C(=O)N(C)c2cnc(Nc3ccc(C(=O)NC4CCN(C)CC4)cc3OC)nc2N1C1CCCC1 [BI 2536] | 21.7 | 25.7 | 21.1 | 29.5 | 25.6 | 29.1
COC(=O)c1ccc2c(c1)NC(=O)/C2=C(\Nc1ccc(N(C)C(=O)CN2CCN(C)CC2)cc1)c1ccccc1 [Nintedanib] | 8.2 | 2.7 | 4.6 | 9.8 | 4.6 | 7.9
Cc1cc([C@@H](C)Nc2ccccc2C(=O)O)c2nc(N3CCOCC3)cc(=O)n2c1 [AZD-6482] | 6.1 | 1.5 | 4.4 | 1.2 | 0 | 0
Cc1c(-c2c(-c3ccc(F)o3)sc3ncnc(O[C@H](Cc4ccccc4OCc4ccnn4CC(F)(F)F)C(=O)O)c23)ccc(OCCN2CCN(C)CC2)c1Cl | 0 | 0 | 0 | 0 | 0 | 0
COc1cc(C(=O)O)ccc1NC(=O)[C@@H]1N[C@@H](CC(C)(C)C)[C@](C#N)(c2ccc(Cl)cc2F)[C@H]1c1cccc(Cl)c1F [Idasanutlin] | 0 | 1.1 | 0 | 1.3 | 4.2 | 0
CC(C)[C@H](C(=O)Nc1ccc(C(=O)NO)cc1)c1ccccc1 [AR-42] | 14 | 15.8 | 12.3 | 17.8 | 15.3 | 18.8
CC(=O)Nc1cccc(-n2c(=O)n(C3CC3)c(=O)c3c(Nc4ccc(I)cc4F)n(C)c(=O)c(C)c32)c1 [Trametinib] | 9 | 7.4 | 7.6 | 10.7 | 3.9 | 13.5
O=C(O)CC1CC(c2ccccc2)=NO1 (stereo not given) [VGX-1027] | 0 | 0 | 0 | 0.3 | 0 | 0
Nc1cccc2c1C(=O)N(C1CCC(=O)NC1=O)C2=O (stereo not given) [Pomalidomide] | 0 | 0 | 0 | 0 | 0 | 0
COc1ccc2[nH]cc(/C=C3\C(=O)Nc4ccc(NC(=O)CCN5CCCCC5)cc43)c2c1 | 7.6 | 9.6 | 9.2 | 4 | 9.8 | 8.6
Nc1ccn([C@@H]2O[C@H](CO)[C@@H](O)C2(F)F)c(=O)n1 [Gemcitabine] | 18.4 | 25.2 | 26.7 | 29.5 | 27.2 | 26.3
NC1(c2ccc(-c3nc4ccn5c(=O)[nH]nc5c4cc3-c3ccccc3)cc2)CCC1 [MK-2206] | 5.8 | 1.4 | 16.1 | 0.2 | 0 | 0.3
C[C@]12CC[C@H](O)CC1=CC[C@@H]1[C@@H]2CC[C@]2(C)C(c3cccnc3)=CC[C@@H]12 [Abiraterone] | 0 | 0 | 0 | 0 | 0 | 0
CCn1c(=O)c(-c2ccc(Cl)cc2Cl)cc2cnc(Nc3ccc(N4CCNCC4)c(F)c3)nc21 [FRAX486] | 9.7 | 4.9 | 9.2 | 5.8 | 9.8 | 13.1
O=C(/C=C/c1cccc(S(=O)(=O)Nc2ccccc2)c1)NO [Belinostat] | 15.1 | 18.6 | 27.5 | 17.7 | 18.2 | 22.5
Nc1ncnc2c1nc(N)n2[C@@H]1O[C@H](CO)[C@@H](O)[C@H]1O [8-amino-adenosine] | 21 | 20.3 | 21.4 | 17.9 | 16.5 | 19.5
